Test results published in PubChem BioAssay AID248 (DTP/NCI, 2004).
Values joined by “and” are separate entries in the source; they are usually repeats but may differ in a detail not shown here. Equal values may be shown once. Inconclusive results and toxic doses are left out. No stated cut-off is given here; in the data, active means T/C of 150% or more; inactive means T/C below 125%.

Tested on: L1210 leukemia ip in BDF1 mice, survival T/C
Assay: NCI In Vivo Anticancer Drug Screen. Data for tumor model L1210 Leukemia (intraperitoneal) in B6D2F1 (BDF1) mice
Conditions: higher = longer survival
Summary of the method: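 Survival endpoint. Drug-treated group vs vehicle group, expressed as T divided by C. Tumor passaged by transplantation.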

Measured: T/C

O=P1(N(CCCl)CCCl)NCCCO1 (configuration not stated)
inactive: endpoint: mean survival time, dose: 0.9 mg/kg/injection, schedule: Q01DX009 (ip), vehicle: saline 99 % of control and 100 % of control | endpoint: mean survival time, dose: 1.0 mg/kg/injection, schedule: Q01DX Z (ip), vehicle: methylcellulose (MC) 93 % of control | endpoint: mean survival time, dose: 1.0 mg/kg/injection, schedule: Q01DX Z (oral), vehicle: saline 93 % of control | endpoint: mean survival time, dose: 1.0 mg/kg/injection, schedule: Q07DX Z (ip), vehicle: saline 103 % of control | endpoint: mean survival time, dose: 1.8 mg/kg/injection, schedule: Q01DX009 (ip), vehicle: saline 94 % of control | endpoint: mean survival time, dose: 2.5 mg/kg/injection, schedule: Q07DX Z (ip), vehicle: saline 97 % of control | endpoint: mean survival time, dose: 3.2 mg/kg/injection, schedule: Q01DX001 (ip), vehicle: saline 95 % of control | endpoint: mean survival time, dose: 3.5 mg/kg/injection, schedule: Q01DX009 (ip), vehicle: saline 100 % of control and 104 % of control | endpoint: mean survival time, dose: 3.5 mg/kg/injection, schedule: Q03HX032 (ip), vehicle: saline 110 % of control | endpoint: mean survival time, dose: 3.5 mg/kg/injection, schedule: Q## X032 (ip), vehicle: saline 110 % of control | endpoint: mean survival time, dose: 4.3 mg/kg/injection, schedule: Q01DX Z (ip), vehicle: saline 98 % of control | endpoint: mean survival time, dose: 5.0 mg/kg/injection, schedule: Q01DX Z (ip), vehicle: methylcellulose (MC) 105 % of control | endpoint: mean survival time, dose: 5.0 mg/kg/injection, schedule: Q07DX Z (ip), vehicle: saline 97 % of control | endpoint: mean survival time, dose: 5.36 mg/kg/injection, schedule: Q03HX032 (ip), vehicle: saline 102 % of control | endpoint: mean survival time, dose: 5.36 mg/kg/injection, schedule: Q## X032 (ip), vehicle: saline 102 % of control | endpoint: mean survival time, dose: 5.6 mg/kg/injection, schedule: Q13HX018 (ip), vehicle: saline 98 % of control | endpoint: mean survival time, dose: 6.0 mg/kg/injection, schedule: Q01DX Z (oral), vehicle: saline 108 % of control | endpoint: mean survival time, dose: 6.0 mg/kg/injection, schedule: Q03DX Z (ip), vehicle: saline 109 % of control | endpoint: mean survival time, dose: 6.25 mg/kg/injection, schedule: Q01DX009 (ip), vehicle: saline 104 % of control and 107 % of control | endpoint: mean survival time, dose: 6.25 mg/kg/injection, schedule: Q01DX Z (ip), vehicle: saline 102 % of control | endpoint: mean survival time, dose: 6.3 mg/kg/injection, schedule: Q01DX001 (ip), vehicle: saline 94 % of control | endpoint: mean survival time, dose: 7.13 mg/kg/injection, schedule: Q01DX Z (ip), vehicle: carboxymethylcellulose (CMC) 109 % of control | endpoint: mean survival time, dose: 7.5 mg/kg/injection, schedule: Q01DX009 (ip), vehicle: saline 110 % of control | endpoint: mean survival time, dose: 7.5 mg/kg/injection, schedule: Q01DX Z (ip), vehicle: saline 110 % of control | endpoint: mean survival time, dose: 7.5 mg/kg/injection, schedule: Q04DX002 (ip), vehicle: saline 94 % of control and 111 % of control | endpoint: mean survival time, dose: 8.5 mg/kg/injection, schedule: Q01DX Z (ip), vehicle: saline 110 % of control | endpoint: mean survival time, dose: 9.4 mg/kg/injection, schedule: Q01DX001 (ip), vehicle: water 103 % of control | endpoint: mean survival time, dose: 9.9 mg/kg/injection, schedule: Q01DX010 (ip), vehicle: saline 104 % of control | endpoint: mean survival time, dose: 10.0 mg/kg/injection, schedule: Q01DX Z (ip), vehicle: methylcellulose (MC) 104 % of control | endpoint: mean survival time, dose: 10.0 mg/kg/injection, schedule: Q07DX Z (ip), vehicle: saline 102 % of control | endpoint: mean survival time, dose: 11.25 mg/kg/injection, schedule: Q01DX001 (ip), vehicle: saline 98 % of control and 105 % of control | endpoint: mean survival time, dose: 11.3 mg/kg/injection, schedule: Q01DX Z (ip), vehicle: saline 113 % of control | endpoint: mean survival time, dose: 11.3 mg/kg/injection, schedule: Q## X Z (ip), vehicle: saline 110 % of control | endpoint: mean survival time, dose: 12.0 mg/kg/injection, schedule: Q01DX001 (ip), vehicle: saline 94 % of control and 111 % of control | endpoint: mean survival time, dose: 12.0 mg/kg/injection, schedule: Q01DX Z (im), vehicle: saline 97 % of control | endpoint: mean survival time, dose: 12.0 mg/kg/injection, schedule: Q01DX Z (oral), vehicle: saline 109 % of control | endpoint: mean survival time, dose: 12.0 mg/kg/injection, schedule: Q02DX010 (ip), vehicle: saline 111 % of control | endpoint: mean survival time, dose: 12.0 mg/kg/injection, schedule: Q03DX Z (ip), vehicle: saline 107 % of control | endpoint: mean survival time, dose: 12.5 mg/kg/injection, schedule: Q01DX001 (ip), vehicle: saline 96 % of control | endpoint: mean survival time, dose: 12.5 mg/kg/injection, schedule: Q01DX009 (ip), vehicle: saline 110 % of control | endpoint: mean survival time, dose: 12.5 mg/kg/injection, schedule: Q01DX Z (ip), vehicle: carboxymethylcellulose (CMC) 101 % of control | endpoint: mean survival time, dose: 12.6 mg/kg/injection, schedule: Q01DX009 (ip), vehicle: saline 110 % of control | endpoint: mean survival time, dose: 12.6 mg/kg/injection, schedule: Q01DX Z (ip), vehicle: saline 110 % of control | endpoint: mean survival time, dose: 15.0 mg/kg/injection, schedule: Q01DX Z (ip), vehicle: methylcellulose (MC) 100 % of control | endpoint: mean survival time, dose: 15.0 mg/kg/injection, schedule: Q04DX002 (ip), vehicle: saline 103 % of control | endpoint: mean survival time, dose: 15.0 mg/kg/injection, schedule: Q07DX Z (ip), vehicle: saline 107 % of control | endpoint: mean survival time, dose: 18.75 mg/kg/injection, schedule: Q01DX001 (ip), vehicle: water 103 % of control | endpoint: mean survival time, dose: 18.76 mg/kg/injection, schedule: Q02DX010 (ip), vehicle: saline 112 % of control | endpoint: mean survival time, dose: 19.0 mg/kg/injection, schedule: Q02DX010 (ip), vehicle: saline 110 % of control | endpoint: mean survival time, dose: 20.0 mg/kg/injection, schedule: Q01DX Z (ip), vehicle: methylcellulose (MC) 98 % of control | endpoint: mean survival time, dose: 22.5 mg/kg/injection, schedule: Q01DX001 (ip), vehicle: saline 106 % of control and 109 % of control | endpoint: mean survival time, dose: 22.5 mg/kg/injection, schedule: Q## X Z (ip), vehicle: saline 105 % of control | endpoint: mean survival time, dose: 25.0 mg/kg/injection, schedule: Q01DX006 (iv), vehicle: saline 103 % of control | endpoint: mean survival time, dose: 25.0 mg/kg/injection, schedule: Q01DX Z (im), vehicle: saline 113 % of control | endpoint: mean survival time, dose: 25.0 mg/kg/injection, schedule: Q04DX003 (ip), vehicle: saline 104 % of control | endpoint: mean survival time, dose: 28.5 mg/kg/injection, schedule: Q01DX Z (ip), vehicle: carboxymethylcellulose (CMC) 114 % of control | endpoint: mean survival time, dose: 37.0 mg/kg/injection, schedule: Q01DX001 (ip), vehicle: water 114 % of control | endpoint: mean survival time, dose: 37.5 mg/kg/injection, schedule: Q01DX001 (ip), vehicle: saline with Tween-80 112 % of control | endpoint: mean survival time, dose: 37.5 mg/kg/injection, schedule: Q01DX001 (ip), vehicle: water 114 % of control | endpoint: mean survival time, dose: 45.0 mg/kg/injection, schedule: Q13HX018 (ip), vehicle: saline 107 % of control | endpoint: mean survival time, dose: 45.0 mg/kg/injection, schedule: Q## X Z (ip), vehicle: saline 105 % of control | endpoint: mean survival time, dose: 50.0 mg/kg/injection, schedule: Q01DX Z (ip), vehicle: methylcellulose (MC) 112 % of control | endpoint: mean survival time, dose: 67.5 mg/kg/injection, schedule: Q## X006 (ip), vehicle: saline 100 % of control | endpoint: mean survival time, dose: 86.0 mg/kg/injection, schedule: Q01DX001 (ip), vehicle: saline 112 % of control | endpoint: mean survival time, dose: 90.0 mg/kg/injection, schedule: Q01DX009 (ip), vehicle: saline 107 % of control | endpoint: mean survival time, dose: 90.0 mg/kg/injection, schedule: Q01DX Z (ip), vehicle: saline 98 % of control | endpoint: mean survival time, dose: 90.0 mg/kg/injection, schedule: Q02DX010 (ip), vehicle: carboxymethylcellulose (CMC) 105 % of control | endpoint: mean survival time, dose: 97.0 mg/kg/injection, schedule: Q02DX010 (ip), vehicle: carboxymethylcellulose (CMC) 107 % of control | endpoint: mean survival time, dose: 97.0 mg/kg/injection, schedule: Q02DX010 (ip), vehicle: other 98 % of control | endpoint: mean survival time, dose: 100.0 mg/kg/injection, schedule: Q01DX Z (ip), vehicle: methylcellulose (MC) 108 % of control | endpoint: mean survival time, dose: 100.0 mg/kg/injection, schedule: Q01DX Z (oral), vehicle: saline 107 % of control | endpoint: mean survival time, dose: 135.0 mg/kg/injection, schedule: Q02DX010 (ip), vehicle: saline 111 % of control | endpoint: mean survival time, dose: 180.0 mg/kg/injection, schedule: Q01DX009 (ip), vehicle: saline 96 % of control | endpoint: mean survival time, dose: 180.0 mg/kg/injection, schedule: Q01DX010 (ip), vehicle: saline 102 % of control | endpoint: mean survival time, dose: 200.0 mg/kg/injection, schedule: Q01DX009 (ip), vehicle: saline 93 % of control | endpoint: mean survival time, dose: 200.0 mg/kg/injection, schedule: Q01DX Z (ip), vehicle: saline 100 % of control | endpoint: mean survival time, dose: 320.0 mg/kg/injection, schedule: Q04DX003 (ip), vehicle: saline 111 % of control | endpoint: mean survival time, dose: 360.0 mg/kg/injection, schedule: Q01DX001 (ip), vehicle: saline 113 % of control | endpoint: mean survival time, dose: 400.0 mg/kg/injection, schedule: Q04DX002 (ip), vehicle: saline 100 % of control | endpoint: mean survival time, dose: 468.0 mg/kg/injection, schedule: Q04DX002 (ip), vehicle: saline 111 % of control | endpoint: mean survival time, dose: 900.0 mg/kg/injection, schedule: Q01DX001 (ip), vehicle: saline 102 % of control | endpoint: median survival time, dose: 5.0 mg/kg/injection, schedule: Q01DX009 (ip), vehicle: saline 101 % of control and 110 % of control | endpoint: median survival time, dose: 10.0 mg/kg/injection, schedule: Q01DX001 (ip), vehicle: saline 99 % of control and 100 % of control | endpoint: median survival time, dose: 20.0 mg/kg/injection, schedule: Q01DX001 (ip), vehicle: saline 106 % of control | endpoint: median survival time, dose: 50.0 mg/kg/injection, schedule: Q08DX003 (ip), vehicle: saline 95 % of control and 97 % of control | endpoint: median survival time, dose: 90.0 mg/kg/injection, schedule: Q01DX009 (ip), vehicle: saline 105 % of control and 112 % of control | endpoint: median survival time, dose: 180.0 mg/kg/injection, schedule: Q01DX009 (ip), vehicle: saline 93 % of control
